Data taken from ChEMBL document CHEMBL4020831, “Discovery of GDC-0853: A Potent, Selective, and Noncovalent Bruton's Tyrosine Kinase Inhibitor in Early Clinical Development” (J Med Chem, 2018).
≈ marks a conversion by molar mass, not a printed value. Calls of active or inactive are those of the source. The rule behind the calls is not given here.

Key:
Homo sapiens = test: Toxicity in human at 250 mg administered bid for 14 days; conditions: in vivo, 336 h
Hepatocyte = test: Cytotoxicity against human primary hepatocytes assessed as reduction in cell viability; type: cell-based
[1] = Aqueous solubility of the compound in 0.1 N HCl; type: physicochemical; conditions: buffer
Nav1.5 = Nav1.5 (Homo sapiens, UniProt Q14524); test: Inhibition of human Nav1.5 expressed in CHO cells at 10 uM incubated for 3 to 5 mins by QPatch clamp assay; type: cell-based; conditions: CHO cells expressing human Nav1.5
Cav1.2 = Cav1.2 (Homo sapiens, UniProt Q13936); test: Inhibition of human Cav1.2 expressed in CHO cells at 10 uM incubated for 3 to 5 mins by Qpatch clamp assay; type: cell-based; conditions: CHO cells expressing human Cav1.2
Salmonella typhimurium [2] = test: Genotoxicity in Salmonella typhimurium TA97a after 48 to 72 hrs in presence of liver S9 fraction by Ames test; type: toxicity; conditions: salmonella enterica subsp. enterica serovar typhimurium
Salmonella typhimurium [3] = test: Genotoxicity in Salmonella typhimurium TA98 after 48 to 72 hrs in presence of liver S9 fraction by Ames test; type: toxicity; conditions: salmonella enterica subsp. enterica serovar typhimurium
Salmonella typhimurium [4] = test: Genotoxicity in Salmonella typhimurium TA1535 after 48 to 72 hrs in presence of liver S9 fraction by Ames test; type: toxicity; conditions: salmonella enterica subsp. enterica serovar typhimurium
Escherichia coli = test: Genotoxicity in Escherichia coli WP2 harboring uvrA deletion mutant after 48 to 72 hrs in presence of liver S9 fraction by Ames test; type: toxicity
Salmonella typhimurium [5] = test: Genotoxicity in Salmonella typhimurium TA100 after 48 to 72 hrs in absence of liver S9 fraction by Ames test; type: toxicity; conditions: salmonella enterica subsp. enterica serovar typhimurium
Salmonella typhimurium [6] = test: Genotoxicity in Salmonella typhimurium TA1535 after 48 to 72 hrs in absence of liver S9 fraction by Ames test; type: toxicity; conditions: salmonella enterica subsp. enterica serovar typhimurium
Salmonella typhimurium [7] = test: Genotoxicity in Salmonella typhimurium TA97a after 48 to 72 hrs in absence of liver S9 fraction by Ames test; type: toxicity; conditions: salmonella enterica subsp. enterica serovar typhimurium
PBL = test: Genotoxicity in human PBL assessed as induction of micronuclei at 500 ug/ml in absence of rat liver S9 fraction by cytochalasin B-block method; type: toxicity, cell-based
Cytochrome P450 1A2 = Cytochrome P450 1A2 (Homo sapiens, UniProt P05177); test: Inhibition of CYP1A2 (unknown origin); type: ADME
Cytochrome P450 2C19 = Cytochrome P450 2C19 (Homo sapiens, UniProt P33261); test: Inhibition of CYP2C19 (unknown origin); type: ADME
Cytochrome P450 2D6 = Cytochrome P450 2D6 (Homo sapiens, UniProt P10635); test: Inhibition of CYP2D6 (unknown origin); type: ADME
TXK = molecular target: T1, TXK (Homo sapiens, UniProt P42681); test: Inhibition of human full length GST-tagged TXK expressed in baculovirus at 1 uM by Z'-LYTE assay
T1 sequence (P42681 whole entry): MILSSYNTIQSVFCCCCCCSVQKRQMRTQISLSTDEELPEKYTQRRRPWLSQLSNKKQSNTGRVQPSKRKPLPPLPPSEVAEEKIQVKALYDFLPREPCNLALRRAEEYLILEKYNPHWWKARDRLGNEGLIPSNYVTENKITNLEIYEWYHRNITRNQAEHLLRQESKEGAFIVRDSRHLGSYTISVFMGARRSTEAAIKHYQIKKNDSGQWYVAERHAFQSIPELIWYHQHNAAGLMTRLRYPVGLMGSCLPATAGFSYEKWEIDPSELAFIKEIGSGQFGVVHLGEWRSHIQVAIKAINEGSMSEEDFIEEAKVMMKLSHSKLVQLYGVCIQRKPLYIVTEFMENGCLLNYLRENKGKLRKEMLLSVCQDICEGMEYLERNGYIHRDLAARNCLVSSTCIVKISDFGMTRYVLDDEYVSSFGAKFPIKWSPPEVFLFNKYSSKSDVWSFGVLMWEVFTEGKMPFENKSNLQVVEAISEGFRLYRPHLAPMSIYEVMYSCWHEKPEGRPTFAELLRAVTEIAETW

BLK = BLK (Homo sapiens, UniProt P51451); test: Inhibition of recombinant human full length His-tagged BLK expressed in baculovirus at 1 uM by Z'-LYTE assay
Rattus norvegicus [8] = test: Antiinflammatory activity in po dosed Lewis rat collagen-induced arthritis model assessed as reduction in ankle thickness administered qd for 16 days; type: functional, organism-based
Rattus norvegicus [9] = test: Antiinflammatory activity in po dosed Lewis rat collagen-induced arthritis model assessed as reduction in ankle thickness administered bid for 16 days; type: functional, organism-based
Rattus norvegicus [10] = test: Antiinflammatory activity in Lewis rat collagen-induced arthritis model assessed as reduction in ankle diameter AUC at 4 mg/kg, po administered qd for 16 days relative to control; type: functional; conditions: 384 h
Rattus norvegicus [11] = test: Antiinflammatory activity in Lewis rat collagen-induced arthritis model assessed as reduction in ankle diameter AUC at 0.25 mg/kg, po administered qd for 16 days relative to control; type: functional; conditions: 384 h
Rattus norvegicus [12] = test: Antiinflammatory activity in Lewis rat collagen-induced arthritis model assessed as reduction in ankle diameter AUC at 2 mg/kg, po administered bid for 16 days relative to control; type: functional; conditions: 384 h
Rattus norvegicus [13] = test: Antiinflammatory activity in Lewis rat collagen-induced arthritis model assessed as reduction in ankle diameter AUC at 0.5 mg/kg, po administered bid for 16 days relative to control; type: functional; conditions: 384 h
Rattus norvegicus [14] = test: Time at which plasma concentration stays above in vitro IC50 for BTK autophosphorylation at Y223 in rat whole blood in Lewis rat collagen-induced arthritis model at 1 to 16 mg/kg, po qd measured during 24 hrs dosing
Rattus norvegicus [15] = test: Time at which plasma concentration stays above in vitro IC50 for BTK autophosphorylation at Y223 in rat whole blood in Lewis rat collagen-induced arthritis modelt at 0.125 to 2 mg/kg, po bid measured during 12 hrs dosing
Rattus norvegicus [16] = test: Time at which plasma concentration stays above in vitro IC70 for BTK autophosphorylation at Y223 in rat whole blood in Lewis rat collagen-induced arthritis model at 0.125 to 2 mg/kg, po bid measured during 12 hrs dosing
Rattus norvegicus [17] = test: Time at which plasma concentration stays above IC90 for BTK autophosphorylation at Y223 in rat whole blood in Lewis rat collagen-induced arthritis model at 0.125 to 2 mg/kg, po bid measured during 12 hrs dosing
Rattus norvegicus [18] = test: Time at which plasma concentration stays above IC70 for BTK autophosphorylation at Y223 in rat whole blood in Lewis rat collagen-induced arthritis model at 0.5 mg/kg, po qd measured during 24 hrs dosing
Rattus norvegicus [19] = test: Antiinflammatory activity in Lewis rat collagen-induced arthritis model assessed as reduction in ankle inflammation at 0.06 to 16 mg/kg, po administered qd for 16 days; type: functional, organism-based
Rattus norvegicus [20] = test: Antiinflammatory activity in Lewis rat collagen-induced arthritis model assessed as reduction in ankle pannus at 0.06 to 16 mg/kg, po administered qd for 16 days; type: functional, organism-based
Rattus norvegicus [21] = test: Antiinflammatory activity in Lewis rat collagen-induced arthritis model assessed as reduction in bone resorption at 0.06 to 16 mg/kg, po administered qd for 16 days; type: functional, organism-based
Rattus norvegicus [22] = test: Antiinflammatory activity in Lewis rat collagen-induced arthritis model assessed as reduction in ankle pannus at 0.125 to 2 mg/kg, po administered bid for 16 days; type: functional, organism-based
[23] = Clearance in human liver microsomes at 1 uM incubated up to 60 mins by LC-MS/MS method; type: ADME, microsome

Cytochrome P450 2C19, sequence (P33261 whole entry): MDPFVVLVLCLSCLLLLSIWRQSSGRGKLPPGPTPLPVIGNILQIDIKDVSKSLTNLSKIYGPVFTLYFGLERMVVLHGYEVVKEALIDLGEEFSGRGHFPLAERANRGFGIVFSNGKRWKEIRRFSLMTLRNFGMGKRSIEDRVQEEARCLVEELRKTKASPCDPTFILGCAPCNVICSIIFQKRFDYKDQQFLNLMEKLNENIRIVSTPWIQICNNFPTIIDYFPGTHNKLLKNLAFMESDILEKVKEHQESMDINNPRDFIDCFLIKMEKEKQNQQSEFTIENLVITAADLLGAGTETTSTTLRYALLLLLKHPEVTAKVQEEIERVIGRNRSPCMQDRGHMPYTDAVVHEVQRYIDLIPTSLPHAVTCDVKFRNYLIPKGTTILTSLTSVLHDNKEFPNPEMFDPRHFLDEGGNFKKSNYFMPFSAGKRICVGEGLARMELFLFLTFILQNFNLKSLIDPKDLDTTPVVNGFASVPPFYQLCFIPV
Cav1.2, sequence (Q13936 whole entry): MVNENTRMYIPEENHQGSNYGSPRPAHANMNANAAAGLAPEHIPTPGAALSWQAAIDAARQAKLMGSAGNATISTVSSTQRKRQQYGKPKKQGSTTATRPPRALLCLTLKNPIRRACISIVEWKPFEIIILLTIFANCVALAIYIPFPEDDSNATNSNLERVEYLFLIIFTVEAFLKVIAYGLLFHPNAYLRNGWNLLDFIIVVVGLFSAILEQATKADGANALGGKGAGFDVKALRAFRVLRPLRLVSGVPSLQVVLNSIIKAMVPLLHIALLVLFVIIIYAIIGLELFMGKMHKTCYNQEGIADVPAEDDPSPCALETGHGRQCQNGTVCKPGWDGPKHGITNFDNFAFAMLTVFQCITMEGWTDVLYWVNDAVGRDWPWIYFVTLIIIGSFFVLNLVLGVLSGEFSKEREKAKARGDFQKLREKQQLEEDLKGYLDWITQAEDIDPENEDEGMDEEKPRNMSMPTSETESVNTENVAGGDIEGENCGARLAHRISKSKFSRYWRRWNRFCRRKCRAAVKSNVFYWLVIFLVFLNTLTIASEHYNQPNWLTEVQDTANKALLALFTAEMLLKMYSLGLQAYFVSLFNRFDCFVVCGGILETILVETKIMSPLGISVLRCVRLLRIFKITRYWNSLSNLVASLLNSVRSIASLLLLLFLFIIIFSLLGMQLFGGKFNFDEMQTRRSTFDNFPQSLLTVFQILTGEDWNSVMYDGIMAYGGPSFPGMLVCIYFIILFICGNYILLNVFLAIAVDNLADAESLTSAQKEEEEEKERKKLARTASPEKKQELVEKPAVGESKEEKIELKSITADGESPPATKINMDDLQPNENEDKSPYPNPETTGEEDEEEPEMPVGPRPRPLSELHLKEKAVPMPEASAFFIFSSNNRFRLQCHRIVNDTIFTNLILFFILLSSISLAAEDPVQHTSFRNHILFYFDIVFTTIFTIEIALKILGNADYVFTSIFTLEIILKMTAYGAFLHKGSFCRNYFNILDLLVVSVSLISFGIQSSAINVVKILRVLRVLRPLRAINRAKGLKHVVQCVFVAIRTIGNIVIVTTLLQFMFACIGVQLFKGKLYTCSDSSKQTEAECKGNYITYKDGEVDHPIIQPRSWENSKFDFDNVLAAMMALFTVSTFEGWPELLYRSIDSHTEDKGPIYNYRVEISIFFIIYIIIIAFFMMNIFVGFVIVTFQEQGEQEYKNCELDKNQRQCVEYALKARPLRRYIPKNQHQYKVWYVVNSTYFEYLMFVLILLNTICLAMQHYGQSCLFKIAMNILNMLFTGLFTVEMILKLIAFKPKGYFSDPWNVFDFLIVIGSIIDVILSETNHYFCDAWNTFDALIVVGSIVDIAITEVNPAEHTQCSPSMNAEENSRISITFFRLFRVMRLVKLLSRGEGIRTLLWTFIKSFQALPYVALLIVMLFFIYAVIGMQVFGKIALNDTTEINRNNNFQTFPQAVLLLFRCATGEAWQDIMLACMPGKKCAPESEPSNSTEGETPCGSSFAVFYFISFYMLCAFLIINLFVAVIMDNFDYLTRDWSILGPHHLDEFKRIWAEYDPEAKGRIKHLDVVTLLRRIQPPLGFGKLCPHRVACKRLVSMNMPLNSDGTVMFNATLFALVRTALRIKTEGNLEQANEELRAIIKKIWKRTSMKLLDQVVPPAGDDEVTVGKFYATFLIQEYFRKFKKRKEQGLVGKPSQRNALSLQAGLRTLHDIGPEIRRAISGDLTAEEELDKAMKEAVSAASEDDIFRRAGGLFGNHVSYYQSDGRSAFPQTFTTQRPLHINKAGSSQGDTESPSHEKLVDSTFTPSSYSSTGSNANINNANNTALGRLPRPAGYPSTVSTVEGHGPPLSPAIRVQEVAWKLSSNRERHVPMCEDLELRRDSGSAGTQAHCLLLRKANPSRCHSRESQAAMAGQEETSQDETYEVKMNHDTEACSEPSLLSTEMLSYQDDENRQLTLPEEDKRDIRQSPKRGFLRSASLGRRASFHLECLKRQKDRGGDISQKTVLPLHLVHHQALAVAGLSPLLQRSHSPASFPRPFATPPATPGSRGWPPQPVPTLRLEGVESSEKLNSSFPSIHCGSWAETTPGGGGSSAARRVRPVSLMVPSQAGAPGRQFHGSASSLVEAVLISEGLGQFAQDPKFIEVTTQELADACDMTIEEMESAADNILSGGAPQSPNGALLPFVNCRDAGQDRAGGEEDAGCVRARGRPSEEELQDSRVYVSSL
Cytochrome P450 2D6, sequence (P10635 whole entry): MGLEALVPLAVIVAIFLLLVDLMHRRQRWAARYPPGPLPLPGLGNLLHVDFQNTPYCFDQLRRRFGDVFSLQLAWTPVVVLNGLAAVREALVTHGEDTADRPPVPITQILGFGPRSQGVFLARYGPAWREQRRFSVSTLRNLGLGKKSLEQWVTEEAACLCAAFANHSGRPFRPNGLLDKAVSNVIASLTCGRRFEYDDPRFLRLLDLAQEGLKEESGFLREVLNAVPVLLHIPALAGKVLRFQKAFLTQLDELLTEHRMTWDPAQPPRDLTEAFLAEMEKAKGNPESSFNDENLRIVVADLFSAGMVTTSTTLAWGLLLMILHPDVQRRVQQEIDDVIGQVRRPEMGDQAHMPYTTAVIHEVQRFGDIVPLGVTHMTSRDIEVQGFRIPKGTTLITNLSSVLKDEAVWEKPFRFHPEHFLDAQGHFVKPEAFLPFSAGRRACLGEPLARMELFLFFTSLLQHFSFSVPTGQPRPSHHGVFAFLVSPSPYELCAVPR
Cytochrome P450 1A2, sequence (P05177 whole entry): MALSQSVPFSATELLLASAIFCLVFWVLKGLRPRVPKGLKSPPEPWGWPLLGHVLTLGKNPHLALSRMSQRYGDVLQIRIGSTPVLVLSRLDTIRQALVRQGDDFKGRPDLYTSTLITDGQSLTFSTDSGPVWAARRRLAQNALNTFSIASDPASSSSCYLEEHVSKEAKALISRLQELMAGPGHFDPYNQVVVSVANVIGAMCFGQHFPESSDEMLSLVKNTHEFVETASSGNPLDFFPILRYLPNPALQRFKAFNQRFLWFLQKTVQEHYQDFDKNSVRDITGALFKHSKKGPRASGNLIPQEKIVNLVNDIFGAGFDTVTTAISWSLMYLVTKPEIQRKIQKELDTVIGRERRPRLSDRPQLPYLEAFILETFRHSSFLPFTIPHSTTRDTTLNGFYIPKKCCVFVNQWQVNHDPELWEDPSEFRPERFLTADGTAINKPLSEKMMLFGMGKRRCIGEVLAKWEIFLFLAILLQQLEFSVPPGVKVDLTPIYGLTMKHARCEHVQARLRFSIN
BLK, sequence (P51451 whole entry): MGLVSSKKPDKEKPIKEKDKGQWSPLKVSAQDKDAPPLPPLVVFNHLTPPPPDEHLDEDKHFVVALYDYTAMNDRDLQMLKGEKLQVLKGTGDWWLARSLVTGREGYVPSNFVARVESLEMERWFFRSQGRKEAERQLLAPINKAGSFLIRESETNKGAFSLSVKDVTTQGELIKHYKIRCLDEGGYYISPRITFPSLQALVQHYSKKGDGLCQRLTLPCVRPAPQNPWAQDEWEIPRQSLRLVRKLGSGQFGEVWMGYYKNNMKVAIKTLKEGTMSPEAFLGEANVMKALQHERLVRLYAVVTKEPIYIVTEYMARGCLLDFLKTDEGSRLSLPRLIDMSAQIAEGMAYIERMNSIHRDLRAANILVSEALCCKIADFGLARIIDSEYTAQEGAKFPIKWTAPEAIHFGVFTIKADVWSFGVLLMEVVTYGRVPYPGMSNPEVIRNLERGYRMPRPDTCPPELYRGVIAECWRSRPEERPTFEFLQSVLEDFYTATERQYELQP

- solubility [1]: 35.9 mg/mL (≈ 54 mM)
- IC50 (Cytochrome P450 1A2): > 5 µM
- IC50 (Cytochrome P450 2C19): > 5 µM
- IC50 (Cytochrome P450 2D6): > 5 µM
- inhibition at 1 µM (TXK): 4%
- inhibition at 1 µM (BLK): 6%
- CLhep predicted at 1 µM [23]: 9.4 mL/min/kg
SMILES: C[C@H]1CN(C2COC2)CCN1c1ccc(Nc2cc(-c3ccnc(N4CCn5c(cc6c5CC(C)(C)C6)C4=O)c3CO)cn(C)c2=O)nc1 [FENEBRUTINIB]
- Activity (Homo sapiens): Non-Toxic
- IC50 (Hepatocyte): > 300 µM
- inhibition at 10 µM (Nav1.5): 1.9%
- inhibition at 10 µM (Cav1.2): 3.8%
- Activity (Salmonella typhimurium [2]): Non-Toxic
- Activity (Salmonella typhimurium [3]): Non-Toxic
- Activity (Salmonella typhimurium [4]): Non-Toxic
- Activity (Escherichia coli): Non-Toxic
- Activity (Salmonella typhimurium [5]): Non-Toxic
- Activity (Salmonella typhimurium [6]): Non-Toxic
- Activity (Salmonella typhimurium [7]): Non-Toxic
- Activity (PBL): Non-Toxic
- Activity (Rattus norvegicus [8]): Dose-dependent effect
- Activity (Rattus norvegicus [9]): Dose-dependent effect
- inhibition in vivo at 4 mg/kg (Rattus norvegicus [10]): 89%
- inhibition in vivo at 0.25 mg/kg (Rattus norvegicus [11]): 26%
- inhibition in vivo at 2 mg/kg (Rattus norvegicus [12]): 96%
- inhibition in vivo at 0.5 mg/kg (Rattus norvegicus [13]): 79%
- Time (Rattus norvegicus [14]): 12 h
- Time (Rattus norvegicus [15]): 6 h
- Time (Rattus norvegicus [16]): 6 h
- Time (Rattus norvegicus [17]): 6 h
- Time (Rattus norvegicus [18]): 12 h
- Activity (Rattus norvegicus [19]): Active
- Activity (Rattus norvegicus [20]): Active
- Activity (Rattus norvegicus [21]): Active
- Activity (Rattus norvegicus [22]): Active
